Data reported in ChEMBL document CHEMBL1150599, “Spiroidesin, a novel lipopeptide from the cyanobacterium Anabaena spiroides that inhibits cell growth of the cyanobacterium Microcystis aeruginosa” (J Nat Prod, 2002).

Columns and labels:
[1] = Inhibition of alpha-chymotrypsin
[2] = test system: Microcystis aeruginosa; test: Growth inhibition of Microcystis aeruginosa NIES-88 after 5 days; type: functional, organism-based; details: NIES-88, 120 h

With CCCCCC(=O)N[C@H](CCc1ccc(O)cc1)C(=O)N[C@@H](CCc1ccc(O)cc1)C(=O)N[C@H](Cc1ccccc1)C(=O)O [SPIROIDESIN] the IC50 [1] was 10 µM and the IC50 [2] was 1.6 µM.
